Measurements reported in ChEMBL document CHEMBL1201862, “PubChem BioAssay data set” (2004).
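Results reflect a 48-hour exposure of cells in 96-well plates to compound at five concentrations. Here, GI50 denotes the concentration required for 50% inhibition of growth.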 Calls of active or inactive are those of the source. Rule as the data show it: active = GI50 up to about 1.1 µM and inactive = higher.

What was measured:
Experiment in all cases: inhibition of tumour cell growth, NCI panel, 48 h
[1] = system: MDA-MB-231
[2] = system: OVCAR-8
[3] = system: UACC-257
[4] = system: SW-620
[5] = system: HOP-92
[6] = system: K562
[7] = system: NCI-H226
[8] = system: DU-145
[9] = system: SN12C
[10] = system: SR
[11] = system: ACHN
[12] = system: SK-MEL-2
[13] = system: NCI-H460
[14] = system: HT-29
[15] = system: SF-539
[16] = system: OVCAR-3
[17] = system: CCRF-CEM
[18] = system: SNB-75
[19] = system: EKVX
[20] = system: SK-MEL-28

| Structure (SMILES) | GI50 [1] | GI50 [2] | GI50 [3] | GI50 [4] | GI50 [5] | GI50 [6] | GI50 [7] | GI50 [8] | GI50 [9] | GI50 [10] | GI50 [11] | GI50 [12] | GI50 [13] | GI50 [14] | GI50 [15] | GI50 [16] | GI50 [17] | GI50 [18] | GI50 [19] | GI50 [20] |
| --- | --- | --- | --- | --- | --- | --- | --- | --- | --- | --- | --- | --- | --- | --- | --- | --- | --- | --- | --- | --- |
| COc1ccc(NC=O)c(C(O)CCNC(C)=O)c1 (stereo not given) | > 100 µM (inactive) | > 100 µM (inactive) | > 100 µM (inactive) | > 100 µM (inactive) | > 100 µM (inactive) | > 100 µM (inactive) | > 100 µM (inactive) | > 100 µM (inactive) | > 100 µM (inactive) | > 100 µM (inactive) | > 100 µM (inactive) | > 100 µM (inactive) | > 100 µM (inactive) | > 100 µM (inactive) | > 100 µM (inactive) | > 100 µM (inactive) | > 100 µM (inactive) | > 100 µM (inactive) | > 100 µM (inactive) |  |
| Cc1c(N)nc([C@H](CC(N)=O)NC[C@H](N)C(N)=O)nc1C(=O)N[C@H](C(=O)N[C@H](C)[C@@H](O)CC(=O)N[C@H](C(=O)NC(O[C@@H]1O[C@@H](C)[C@@H](N)[C@@H](O)[C@H]1O)C(O)c1nc(-c2nc(C(=O)NCCC[S+](C)C)cs2)cs1)[C@@H](C)O)[C@H](O[C@@H]1O[C@@H](CO)[C@@H](O)[C@H](O)[C@@H]1O[C@H]1O[C@H](CO)[C@@H](O)[C@H](OC(N)=O)[C@@H]1O)c1c[nH]cn1 (stereo not given in full) | > 100 µM (inactive) | 48.9 µM (inactive) | > 100 µM (inactive) | > 100 µM (inactive) | 24.6 µM (inactive) |  | 21 µM (inactive) | > 100 µM (inactive) | > 100 µM (inactive) | 0.0109 µM (active) | 0.773 µM (active) | > 100 µM (inactive) | 2.79 µM (inactive) | 82.8 µM (inactive) | 2.2 µM (inactive) | 95.3 µM (inactive) | > 100 µM (inactive) | 18.3 µM (inactive) | > 100 µM (inactive) | > 100 µM (inactive) |
| C=CCC1(O)c2cccc(O)c2C(=O)c2cccc(O)c21 (stereo not given) | 21.1 µM (inactive) | 25.8 µM (inactive) | 13 µM (inactive) | 25.2 µM (inactive) | 17.5 µM (inactive) | 6.71 µM (inactive) | 22.3 µM (inactive) | 17.6 µM (inactive) |  | 6.41 µM (inactive) | 22.8 µM (inactive) | 12 µM (inactive) | 13.9 µM (inactive) | 22.1 µM (inactive) | 31.8 µM (inactive) | 12.3 µM (inactive) |  | 13.2 µM (inactive) | 17.4 µM (inactive) | 20.5 µM (inactive) |
| CC(CCC(=O)O)[C@H]1CCC2[C@H]3C(CC(=O)[C@@]21C)[C@@]1(C)CCC(O)C[C@H]1C[C@@H]3O (stereo not given in full) | > 100 µM (inactive) | > 100 µM (inactive) | > 100 µM (inactive) | > 100 µM (inactive) | > 100 µM (inactive) | > 100 µM (inactive) | > 100 µM (inactive) | > 100 µM (inactive) | > 100 µM (inactive) | > 100 µM (inactive) | > 100 µM (inactive) | > 100 µM (inactive) | > 100 µM (inactive) | > 100 µM (inactive) | > 100 µM (inactive) |  | > 100 µM (inactive) | > 100 µM (inactive) | > 100 µM (inactive) | > 100 µM (inactive) |
| CCOC(=O)NN(C(=O)OCC)C(C(=O)c1ccccc1)N(NC(=O)OCC)C(=O)OCC | > 100 µM (inactive) | > 100 µM (inactive) | > 100 µM (inactive) | > 100 µM (inactive) | > 100 µM (inactive) | > 100 µM (inactive) | > 100 µM (inactive) | > 100 µM (inactive) | > 100 µM (inactive) | > 100 µM (inactive) | > 100 µM (inactive) |  | > 100 µM (inactive) | > 100 µM (inactive) | > 100 µM (inactive) | > 100 µM (inactive) | > 100 µM (inactive) | > 100 µM (inactive) | > 100 µM (inactive) | > 100 µM (inactive) |
| COc1ccccc1/[N+]([O-])=C/c1ccccc1OC(=S)S | 30.9 µM (inactive) | 21.7 µM (inactive) | 28.1 µM (inactive) | 44.5 µM (inactive) | 19 µM (inactive) | 29.5 µM (inactive) | 28.8 µM (inactive) | 70.5 µM (inactive) | 88.1 µM (inactive) | 31.5 µM (inactive) | 49.3 µM (inactive) | 21.5 µM (inactive) | 64.9 µM (inactive) | > 100 µM (inactive) | 57.1 µM (inactive) | 26.2 µM (inactive) |  | 25.8 µM (inactive) | 30.4 µM (inactive) | > 100 µM (inactive) |
| O=c1cc(NNc2cccc(F)c2)[nH]c(=O)[nH]1 | 16.7 µM (inactive) |  | 17.9 µM (inactive) | 18.6 µM (inactive) | 16.3 µM (inactive) | 27.3 µM (inactive) | > 100 µM (inactive) | > 100 µM (inactive) | > 100 µM (inactive) | 10.2 µM (inactive) | 35.6 µM (inactive) | 40.5 µM (inactive) | > 100 µM (inactive) | 16.3 µM (inactive) | 38.9 µM (inactive) | 16.5 µM (inactive) | 22.4 µM (inactive) | > 100 µM (inactive) |  | > 100 µM (inactive) |
| COCN1C(=O)[C@@H]2CCCN2C(=O)c2ccc(Cl)cc21 | > 100 µM (inactive) | > 100 µM (inactive) | > 100 µM (inactive) | > 100 µM (inactive) | > 100 µM (inactive) | > 100 µM (inactive) | > 100 µM (inactive) | > 100 µM (inactive) | > 100 µM (inactive) | > 100 µM (inactive) | > 100 µM (inactive) | > 100 µM (inactive) | > 100 µM (inactive) | > 100 µM (inactive) |  |  |  | > 100 µM (inactive) | > 100 µM (inactive) | > 100 µM (inactive) |
| O=C1Nc2ccccc2/C1=N/Nc1nc(-c2cccc([N+](=O)[O-])c2)cs1 | 17.7 µM (inactive) | 15.9 µM (inactive) | 19.3 µM (inactive) | 36.8 µM (inactive) | 20.1 µM (inactive) |  | 19.2 µM (inactive) | 25.6 µM (inactive) | 20.8 µM (inactive) | 53 µM (inactive) | 31.4 µM (inactive) | 31.5 µM (inactive) | 16.9 µM (inactive) | 17.7 µM (inactive) | 24 µM (inactive) | 34.8 µM (inactive) | 32.8 µM (inactive) | 20.3 µM (inactive) | 22.5 µM (inactive) | 19.5 µM (inactive) |
| CCC(=O)N(c1ccccc1)C(C)CN1CCC(O)(c2ccccc2)CC1 (stereo not given) | > 100 µM (inactive) | > 100 µM (inactive) | > 100 µM (inactive) |  | > 100 µM (inactive) | 74.1 µM (inactive) | > 100 µM (inactive) | > 100 µM (inactive) | > 100 µM (inactive) | > 100 µM (inactive) | > 100 µM (inactive) | > 100 µM (inactive) |  | 58.3 µM (inactive) | > 100 µM (inactive) | > 100 µM (inactive) | > 100 µM (inactive) | > 100 µM (inactive) | > 100 µM (inactive) | > 100 µM (inactive) |
| CSCCCNC(=O)c1csc(-c2csc(C(CNC(=O)OC(C)(C)C)CNC(=O)OC(C)(C)C)n2)n1 | 57.8 µM (inactive) | 33.9 µM (inactive) | 40.6 µM (inactive) | 58.3 µM (inactive) | 43 µM (inactive) | 33.6 µM (inactive) | 42.5 µM (inactive) | 76.2 µM (inactive) | 61.8 µM (inactive) | 24.4 µM (inactive) | 30.9 µM (inactive) | 27.7 µM (inactive) | 14.5 µM (inactive) |  | 45 µM (inactive) | 60 µM (inactive) | 16.6 µM (inactive) | 35 µM (inactive) | 58.3 µM (inactive) |  |
| COc1ccc(-c2cc(=O)c3c(O)cc(O)cc3o2)cc1OC | > 100 µM (inactive) |  | > 100 µM (inactive) | > 100 µM (inactive) | 2.3 µM (inactive) | 92.7 µM (inactive) | > 100 µM (inactive) | 57 µM (inactive) | 59.6 µM (inactive) | 9.2 µM (inactive) | 35.5 µM (inactive) | > 100 µM (inactive) | 44.7 µM (inactive) | 81.8 µM (inactive) | 18.4 µM (inactive) | 46 µM (inactive) | 41.8 µM (inactive) | 4.69 µM (inactive) | 83.8 µM (inactive) | > 100 µM (inactive) |
| C=CCOC(=O)N1c2ccc(O)cc2[C@@]23O[C@@]24[C@@H]1C#C/C=C\C#C[C@]3(O)C(=O)C[C@@H]4C | > 100 µM (inactive) | 47.1 µM (inactive) | > 100 µM (inactive) | > 100 µM (inactive) | 72.9 µM (inactive) | 59.7 µM (inactive) | 34.4 µM (inactive) | > 100 µM (inactive) | 54.2 µM (inactive) | 15 µM (inactive) | 28.2 µM (inactive) | 77.8 µM (inactive) | 11.5 µM (inactive) | 43.5 µM (inactive) | 83.8 µM (inactive) |  | 28.4 µM (inactive) | 27.2 µM (inactive) | 78 µM (inactive) | > 100 µM (inactive) |
| Cc1ccc(C(=O)CCC2C(=O)CC(C)(C)CC2=O)cc1 | > 100 µM (inactive) | > 100 µM (inactive) | > 100 µM (inactive) | > 100 µM (inactive) | 44.9 µM (inactive) |  | > 100 µM (inactive) | > 100 µM (inactive) | > 100 µM (inactive) | 15.7 µM (inactive) | > 100 µM (inactive) | > 100 µM (inactive) | > 100 µM (inactive) | > 100 µM (inactive) | > 100 µM (inactive) | > 100 µM (inactive) | 24.5 µM (inactive) | > 100 µM (inactive) | > 100 µM (inactive) | > 100 µM (inactive) |
